According to patent US10087216B2 (priority 2014, dated 2018):

System: potassium ion channel current of the DRG neurons
Test: cells
Assay type: cell-based, SD rats

In the case of Nc1ccncc1 [4AP, 4-aminopyridine], the “Current recorded after loading” value (5 mM) is reported as 0.9766 nA and the inhibition at 5000 µM (Rattus norvegicus, DRG neuron, read-out: Current inhibition rate) is reported as 33.8%.
